In brackets after ≈: the same amount, converted by molar mass. Like-named read-outs stand apart in the source and are kept apart here.
How the values were obtained:
[1] = system: Acinetobacter Baumanii ATCC 17904; experiment: Determination of MIC and MBC by microdilution method, Acinetobacter; format: cell-based; settings: for MIC / MBC: Acinetobacter baumannii; for MIC: ATCC17904, 18 h, read-out: Minimal inhibitory concentration (MIC)
Description: The compound have been tested towards 7 reference strains: […]
(§1) The determination of minimal inhibitory concentrations (MIC) has been performed using a microdution method (microplates and inoculator Dynatech) in liquid medium (MUELLER-HINTON broth) under a volume of 100 μl and for a range of concentrations from 128 to 0.06 mg/l, prepared from a mother liquor of antibiotics titrating 512 mg/l. The preparation of these mother liquors has been performed and vary depending on the molecules as a function of the solubility criterions. Inoculation has been done by adding in each will, 10 μl of a dilution in saline of 18 hours old broth in a brain-heart broth, such as each well contains about 10^6 bacterias/ml.
(§2) The Minimal Inhibitory Concentrations are read as the first concentration of antibiotic which will not give a growth macroscopically detectable after 18 hours incubating at 37°.

S. aureus CB-951 = experiment: Determination of MIC and MBC by microdilution method, S. aureus CB-951; format: cell-based, Staphylococcus aureus; settings: for MIC / MBC: Staphylococcus aureus; for MIC: CB951, 18 h, read-out: Minimal inhibitory concentration (MIC)
Description: (§3) The compound have been tested towards 7 reference strains:
Staphylococcus aureus CB 951
as §1, §2

[2] = system: Streptococcus faecalis ATCC 8043; experiment: Determination of MIC and MBC by microdilution method, Streptococcus faecalis ATCC 8043; format: cell-based; settings: for MBC / MIC: Enterococcus faecalis; for MIC: read-out: Minimal inhibitory concentration (MIC)
Description: as §3
Streptococcus faecalis ATCC 8043
(§4) The preparation of these mother liquors has been performed and vary depending on the molecules as a function of the solubility criterions. Inoculation has been done by adding in each will, 10 μl of a dilution in saline of 18 hours old broth in a brain-heart broth, such as each well contains about 10^6 bacterias/ml. […]

[3] = system: Escherichia coli ATCC 25922; experiment: Determination of MIC and MBC by microdilution method, Escherichia coli ATCC 25922; format: cell-based; settings: E. coli ATCC 25922; for MIC / MBC: Escherichia coli, ATCC25922; for MIC: read-out: Minimal inhibitory concentration (MIC); for MBC: read-out: Minimal bactericidal concentration (MBC)
Description: as §3
Escherichia coli ATCC 25922
as §1, §2

[4] = system: Staphylococcus aureus ATCC 25923; experiment: Determination of MIC and MBC by microdilution method, Staphylococcus aureus ATCC 25923; format: cell-based; settings: for MIC / MBC: Staphylococcus aureus; for MIC: ATCC25923, 18 h, read-out: Minimal inhibitory concentration (MIC)
Description: as §3
Staphylococcus aureus ATCC 25923
as §1, §2

[5] = system: Pseudomonas aeruginosa ATCC 22853; experiment: Determination of MIC and MBC by microdilution method, Pseudomonas aeruginosa ATCC 22853; format: cell-based; settings: for MIC / MBC: Pseudomonas aeruginosa; for MIC: ATCC22853, 18 h, read-out: Minimal inhibitory concentration (MIC)
Description: as §3
Pseudomonas aeruginosa ATCC 22853
as §4

[6] = Acinetobacter Baumanii ATCC 17904, Mueller-Hinton broth, 18 hours at 37°
[7] = ATCC17904, Acinetobacter Baumanii ATCC 17904, read-out: Minimal bactericidal concentration (MBC)
[8] = S. aureus CB-951, methicillino, erythromycinolincomycino, pefloxacino resistant, Mueller-Hinton broth, 18 hours at 37°
[9] = CB951, S. aureus CB-951, methicillino, erythromycinolincomycino, pefloxacino resistant, read-out: Minimal bactericidal concentration (MBC)
[10] = ATCC8043, S. faecalis ATCC 8043, read-out: Minimal bactericidal concentration (MBC)
[11] = ATCC8043, S. faecalis ATCC 8043, Mueller-Hinton broth, 18 hours at 37°
[12] = Mueller-Hinton broth, 18 hours at 37°
[13] = S. aureus ATCC 25923, Mueller-Hinton broth, 18 hours at 37°
[14] = ATCC25923, S. aureus ATCC 25923, read-out: Minimal bactericidal concentration (MBC)
[15] = P. aeruginosa ATCC 22853, Mueller-Hinton broth, 18 hours at 37°
[16] = ATCC22853, P. aeruginosa ATCC 22853, read-out: Minimal bactericidal concentration (MBC)

SMILES	MIC [1, 6] [µg/mL]	MIC (S. aureus CB-951; [8]) [µg/mL]	MIC [2, 11] [µg/mL]	MIC [3, 12] [µg/mL]	MIC [4, 13] [µg/mL]	MIC [5, 15] [µg/mL]	MBC [1, 7] [µg/mL]	MBC (S. aureus CB-951; [9]) [µg/mL]	MBC [2, 10] [µg/mL]	MBC [3] [µg/mL]	MBC [4, 14] [µg/mL]	MBC [5, 16] [µg/mL]	further results
NCC1CCN(c2c(F)cc3c(=O)c(C(=O)O)cn(CCF)c3c2F)CC1 [Compound 3, 7-(4-aminomethylpiperidinyl-1) 6,8-difluoro 1-fluoroethyl 4-oxo 1,4-dihydroquinoleinyl-3 carboxylic acid]	2 (≈ 5.22 µM)	4 (≈ 10.4 µM)	2 (≈ 5.22 µM)	2 (≈ 5.22 µM)	0.5 (≈ 1.3 µM)	8 (≈ 20.9 µM)	4 (≈ 10.4 µM)	8 (≈ 20.9 µM)	4 (≈ 10.4 µM)	2 (≈ 5.22 µM)	1 (≈ 2.61 µM)	16 (≈ 41.7 µM)	
CCOC(=O)c1ccc(NC(=O)NCC2CCN(c3c(F)cc4c(=O)c(C(=O)O)cn(CC)c4c3F)CC2)cc1 [Compound 15, 7-[4-(4-ethoxycarbonylphenyl)aminocarbonylaminomethylpiperidinyl-1] 6,8-difluoro 1-ethyl]	0.12 (≈ 0.216 µM)	1 (≈ 1.8 µM)	> 16	> 16	0.12 (≈ 0.216 µM)	> 16	0.25 (≈ 0.449 µM)	2 (≈ 3.59 µM)	> 16	> 16	0.12 (≈ 0.216 µM)	> 16	
O=C(O)c1cn(C2CC2)c2cc(N3CCNCC3)c(F)cc2c1=O [Ciprofloxacine, reference compound]													MIC [1]: 0.06 µg/mL (≈ 0.181 µM); MBC ([1]; ATCC17904, read-out: Minimal bactericidal concentration (MBC)): 0.06 µg/mL (≈ 0.181 µM); MIC (S. aureus CB-951): 4 µg/mL (≈ 12.1 µM); MBC (S. aureus CB-951; CB951, read-out: Minimal bactericidal concentration (MBC)): 4 µg/mL (≈ 12.1 µM); MIC ([2]; ATCC8043, 18 h): 0.25 µg/mL (≈ 0.754 µM); MBC ([2]; ATCC8043, read-out: Minimal bactericidal concentration (MBC)): 0.25 µg/mL (≈ 0.754 µM); MIC [4]: 0.25 µg/mL (≈ 0.754 µM); MBC ([4]; ATCC25923, read-out: Minimal bactericidal concentration (MBC)): 0.25 µg/mL (≈ 0.754 µM); MIC [5]: 0.12 µg/mL (≈ 0.362 µM); MBC ([5]; ATCC22853, read-out: Minimal bactericidal concentration (MBC)): 0.25 µg/mL (≈ 0.754 µM)
CCn1cc(C(=O)O)c(=O)c2cc(F)c(N3CCC(CNC(=O)Nc4ccccc4)CC3)c(F)c21 [Compound 10, 7-[(4-Phenylaminocarboxamidomethyl)piperidinyl-1] 6,8-difluoro 1-ethyl 4-oxo 1,4-dihydroquinoleinyl-3 carboxylic acid]	0.3 (≈ 0.619 µM)	0.3 (≈ 0.619 µM)	25 (≈ 51.6 µM)	0.7 (≈ 1.44 µM)	0.15 (≈ 0.31 µM)	3 (≈ 6.19 µM)	0.7 (≈ 1.44 µM)	1.5 (≈ 3.1 µM)	> 25	0.7 (≈ 1.44 µM)	0.3 (≈ 0.619 µM)	6 (≈ 12.4 µM)	
CCn1cc(C(=O)O)c(=O)c2cc(F)c(N3CCC(CNC(=O)Nc4cccc(F)c4)CC3)c(F)c21 [Compound 13, 7-[4-(3-fluorophenyl)aminocarbonylaminomethylpiperidinyl-1] 6,8-difluoro 1-ethyl]	0.06 (≈ 0.119 µM)	0.25 (≈ 0.498 µM)	> 16	> 16	0.12 (≈ 0.239 µM)	> 16	0.06 (≈ 0.119 µM)	0.5 (≈ 0.995 µM)	> 16	> 16	0.25 (≈ 0.498 µM)	> 16	
CCn1cc(C(=O)O)c(=O)c2cc(F)c(N3CCC(CNC(=O)CCO)CC3)c(F)c21 [Compound 2, 7-(4-(3-hydroxypropionylaminomethyl)piperidinyl-1) 6,8-difluoro 1-ethyl 4-oxo 1,4-dihydroquinoleinyl-3 carboxylic acid]	2 (≈ 4.57 µM)	4 (≈ 9.14 µM)	4 (≈ 9.14 µM)	8 (≈ 18.3 µM)	0.5 (≈ 1.14 µM)	> 32	4 (≈ 9.14 µM)	4 (≈ 9.14 µM)	4 (≈ 9.14 µM)	8 (≈ 18.3 µM)	1 (≈ 2.29 µM)	> 32	
CCn1cc(C(=O)O)c(=O)c2cc(F)c(N3CCC(CN)CC3)c(F)c21 [Compound b, 7-(4-aminomethylpiperidinyl-1) 6,8-difluoro 1-ethyl 4-oxo 1,4-dihydroquinoleinyl-3 carboxylic acid]													Minimal bactericidal concentration (MBC) ([1]; Acinetobacter Baumanii ATCC 17904): 0,5 μg/ml; Minimal inhibitory concentration (MIC) [1, 6]: 0,5 μg/ml; Minimal bactericidal concentration (MBC) (S. aureus CB-951; S. aureus CB-951, methicillino, erythromycinolincomycino, pefloxacino resistant): 4 µg/mL (≈ 10.9 µM); Minimal inhibitory concentration (MIC) (S. aureus CB-951; [8]): 4 µg/mL (≈ 10.9 µM); Minimal bactericidal concentration (MBC) ([2]; S. faecalis ATCC 8043): 1 µg/mL (≈ 2.74 µM); Minimal inhibitory concentration (MIC) ([2]; S. faecalis ATCC 8043, Mueller-Hinton broth, 18 hours at 37°): 0,5 μg/ml; Minimal bactericidal concentration (MBC) [3]: 0,5 μg/ml; Minimal inhibitory concentration (MIC) [3, 12]: 0,5 μg/ml; Minimal bactericidal concentration (MBC) ([4]; S. aureus ATCC 25923): 0,5 μg/ml; Minimal inhibitory concentration (MIC) [4, 13]: 0,5 μg/ml; Minimal bactericidal concentration (MBC) ([5]; P. aeruginosa ATCC 22853): 8 µg/mL (≈ 21.9 µM); Minimal inhibitory concentration (MIC) [5, 15]: 4 µg/mL (≈ 10.9 µM)

More lines, main results first:

MIC [1, 6] [µg/mL]	MIC (S. aureus CB-951; [8]) [µg/mL]	MIC [2, 11] [µg/mL]	MIC [3, 12] [µg/mL]	MIC [4, 13] [µg/mL]	MIC [5, 15] [µg/mL]	SMILES	MBC [1, 7] [µg/mL]	MBC (S. aureus CB-951; [9]) [µg/mL]	MBC [2, 10] [µg/mL]	MBC [3] [µg/mL]	MBC [4, 14] [µg/mL]	MBC [5, 16] [µg/mL]	further results
≤ 0.12	0.25 (≈ 0.48 µM)	2 (≈ 3.84 µM)	2 (≈ 3.84 µM)	≤ 0.12	> 16	CCn1cc(C(=O)O)c(=O)c2cc(F)c(N3CCC(CNC(=O)Nc4ccc(F)cc4F)CC3)c(F)c21 [Compound 18, 7-[4-(2,4-difluorophenyl)aminocarbonylaminomethylpiperidinyl-1] 6,8-difluoro 1-ethyl]	≤ 0.12	0.25 (≈ 0.48 µM)	2 (≈ 3.84 µM)	4 (≈ 7.69 µM)	≤ 0.12	> 16	
0.06 (≈ 0.12 µM)	0.25 (≈ 0.501 µM)	4 (≈ 8.02 µM)	> 16	0.06 (≈ 0.12 µM)	> 16	CCn1cc(C(=O)O)c(=O)c2cc(F)c(N3CCC(CNC(=O)Nc4ccc(C)cc4)CC3)c(F)c21 [Compound 12]	0.06 (≈ 0.12 µM)	1 (≈ 2.01 µM)	4 (≈ 8.02 µM)	> 16	0.06 (≈ 0.12 µM)	> 16	
0.25 (≈ 0.593 µM)	1 (≈ 2.37 µM)	8 (≈ 19 µM)	8 (≈ 19 µM)	0.5 (≈ 1.19 µM)	> 16	CCC(=O)NCC1CCN(c2c(F)cc3c(=O)c(C(=O)O)cn(CC)c3c2F)CC1 [Compound 7, 7-[(4-propionylaminomethyl)piperidinyl-1] 6,8-difluoro 1-ethyl 4-oxo 1,4-dihydroquinoleinyl-3 carboxylic acid]	0.5 (≈ 1.19 µM)	1 (≈ 2.37 µM)	8 (≈ 19 µM)	8 (≈ 19 µM)	0.51 (≈ 1.21 µM)	> 16	
	1 (≈ 1.89 µM)	4 (≈ 7.55 µM)	16 (≈ 30.2 µM)	0.03 (≈ 0.0567 µM)	> 16	CCn1cc(C(=O)O)c(=O)c2cc(F)c(N3CCC(CNC(=O)Nc4ccc([N+](=O)[O-])cc4)CC3)c(F)c21 [Compound 17, 7-[4-(4-nitrophenyl)aminocarbonylaminomethylpiperidinyl-1] 6,8-difluoro 1-ethyl]		1 (≈ 1.89 µM)	8 (≈ 15.1 µM)	> 16	0.03 (≈ 0.0567 µM)	> 16	
	0.03 (≈ 0.0597 µM)	2 (≈ 3.98 µM)	8 (≈ 15.9 µM)		> 32	CCn1cc(C(=O)O)c(=O)c2cc(F)c(N3CCC(CNC(=O)Nc4ccccc4F)CC3)c(F)c21 [Compound 19, 7-[4-(2-fluorophenyl)aminocarbonylaminomethylpiperidinyl-1] 6,8-difluoro 1-ethyl]		0.06 (≈ 0.119 µM)	2 (≈ 3.98 µM)	8 (≈ 15.9 µM)		> 32	

Source: patent US5420140A, “Difluorinated quinolones useful for treating bacterial infections” (Bouchara S.A., priority 1991, dated 1995)
